From patent US8507479B2, “Aminodihydrothiazine derivatives substituted with a cyclic group” (Shionogi & Co., Ltd., priority 2007, dated 2013)
pIC50: −log10 of the molar value. Like-named read-outs stand apart in the source and are kept apart here.

Biological target: Recombinant human BACE-1 (Homo sapiens (Human), UniProt P56817)
Test: Assay of β-secretase-inhibiting activity;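 also: enzyme cleavage of a biotinylated, Europium cryptate-labelled peptide substrate, incubated 3 h at 30 °C, then probed with Streptavidin-XL665 in KF-containing phosphate buffer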
Format: biochemical
[1] = substrate peptide 18 nM, BACE-1 7.4 nM, pH 5.0, 30° C., 3 hours, read-out: IC50 values

Recombinant human BACE-1, sequence (P56817 46-501): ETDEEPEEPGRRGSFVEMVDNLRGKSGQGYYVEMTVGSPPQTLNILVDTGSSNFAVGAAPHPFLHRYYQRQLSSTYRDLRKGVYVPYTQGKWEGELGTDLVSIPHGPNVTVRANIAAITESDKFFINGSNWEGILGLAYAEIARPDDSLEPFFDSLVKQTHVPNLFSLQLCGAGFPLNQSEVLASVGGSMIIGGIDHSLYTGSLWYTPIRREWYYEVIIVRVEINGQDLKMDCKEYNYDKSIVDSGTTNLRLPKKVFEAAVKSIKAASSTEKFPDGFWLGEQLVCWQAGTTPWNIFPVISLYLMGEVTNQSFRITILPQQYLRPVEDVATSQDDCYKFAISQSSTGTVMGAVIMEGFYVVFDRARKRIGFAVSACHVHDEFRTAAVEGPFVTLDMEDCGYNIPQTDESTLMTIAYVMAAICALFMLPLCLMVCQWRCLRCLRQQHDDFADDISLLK

| Structure (SMILES) | pIC50 [1] | other results |
| --- | --- | --- |
| Cc1nc(Br)sc1C(=O)Nc1cccc([C@]2(C)CCSC(N)=N2)c1 [Compound 6] | ≥ 6.00 |  |
| Cc1nc(C)c(C(=O)Nc2cccc([C@]3(C)CCSC(N)=N3)c2)s1 [Compound 8] | ≥ 6.00 |  |
| Cc1nc(C(=O)Nc2cccc([C@]3(C)CCSC(N)=N3)c2)cs1 [Compound 10] | ≥ 6.00 |  |
| C[C@@]1(c2cccc(N/C(=N/O)c3ncc(Cl)cc3Cl)c2)CCSC(N)=N1 [Compound 26] |  | pIC50 (Recombinant human BACE-1, Table 139, read-out: IC50): 5.31 |
| COc1cnc(C(=O)Nc2cccc([C@]3(C)CCSC(N)=N3)c2)c(N)n1 [Compound 29] | ≥ 6.00 |  |
| C[C@@]1(c2cc(NC(=O)c3cnc(N=NN)cn3)ccc2F)CCSC(N)=N1 [Compound 79] | ≥ 6.00 |  |
| COCCOc1cnc(C(=O)Nc2cc(F)c(F)c([C@]3(C)CCSC(N)=N3)c2)cn1 [Compound 148] | ≥ 6.00 |  |
| Cc1nc(C(=O)Nc2cncc([C@]3(C)CCSC(N)=N3)c2)c(C)o1 [Compound 461] | ≥ 6.00 |  |
| Cc1cnc(C(=O)Nc2cc([C@]3(C)CCSC(N)=N3)c3oc(C)cc3c2)cn1 [Compound 468] | ≥ 6.00 |  |
| Cn1nc(Cl)cc1C(=O)Nc1cncc([C@]2(C)CCSC(N)=N2)c1 [Compound 478] | ≥ 6.00 |  |
| C[C@@]1(c2cc(NC(=O)c3ncc(O)cc3F)ccc2F)CCSC(N)=N1 [Compound 491] | ≥ 6.00 |  |
| C[C@@]1(c2cc(NC(=O)c3cn4ccccc4n3)ccc2F)CCSC(N)=N1 [Compound 502] | ≥ 6.00 |  |
| Cc1nc(C(=O)Nc2ccc(F)c([C@]3(C)CCSC(N)=N3)c2)cs1 [Compound 505] | ≥ 6.00 |  |
| CC1(c2cc(NC(=O)c3cnc(Cl)cn3)ccc2Br)CCSC(N)=N1 (stereo not shown) [Compound 517] | ≥ 6.00 |  |
| CC(=O)c1ccc(C(=O)Nc2ccc(F)c([C@]3(C)CCSC(N)=N3)c2)s1 [Compound 530] | ≥ 6.00 |  |
| C[C@@]1(c2cc(NC(=O)c3cnc(-c4ccsc4)cn3)ccc2F)CCSC(N)=N1 [Compound 537] | ≥ 6.00 |  |
| Cc1cc(C(=O)Nc2ccc(F)c([C@]3(C)CCSC(N)=N3)c2)n(C(C)(C)C)n1 [Compound 538] | ≥ 6.00 |  |
| C[C@@]1(c2cc(NC(=O)c3ccc(OCC(N)=O)cn3)ccc2F)CCSC(N)=N1 [Compound 559] | ≥ 6.00 |  |
| Cc1cnc(C(=O)Nc2cccc([C@]3(C)CCSC(N)=N3)c2)cn1 [Compound 563] | ≥ 6.00 |  |
| C[C@@]1(c2cc(NC(=O)c3ccc(OCC#CCN)cn3)ccc2F)CCSC(N)=N1 [Compound 566] | ≥ 6.00 |  |

| Structure (SMILES) | pIC50 [1] | other results |
| --- | --- | --- |
| Cc1cnn(-c2cnc(C(=O)Nc3ccc(F)c([C@]4(C)CCSC(N)=N4)c3)cn2)c1 [Compound 577] | ≥ 6.00 |  |
| C[C@@]1(c2cncc(NC(=O)c3cnc(Cl)cn3)c2)CCSC(N)=N1 [Compound 597] | ≥ 6.00 |  |
| C[C@@]1(c2ccnc(NC(=O)c3ccc(Cl)cn3)c2)CCSC(N)=N1 [Compound 598] | ≥ 6.00 |  |
| C[C@@]1(c2cccc(NC(=O)c3ccc(Cl)cn3)n2)CCSC(N)=N1 [Compound 599] | ≥ 6.00 |  |
| CC1(C)C[C@@](C)(c2cc(NC(=O)c3coc(Cl)n3)ccc2F)N=C(N)S1 [Compound 645] | ≥ 6.00 |  |
| Cc1nc(C(=O)Nc2ccc(F)c([C@@]3(C)N=C(N)SCC3(C)C)c2)co1 [Compound 648] | ≥ 6.00 |  |
| CC1(C)C[C@@](C)(c2cc(NC(=O)c3ccc(O)cn3)ccc2F)N=C(N)S1 [Compound 650] | ≥ 6.00 |  |
| Cc1cn2cc(C(=O)Nc3ccc(F)c([C@]4(C)CCSC(N)=N4)c3)ncc2n1 [Compound 652] | ≥ 6.00 |  |
| Cc1nc(C(=O)Nc2ccnc([C@]3(C)CC(C)(C)SC(N)=N3)c2)co1 [Compound 654] | ≥ 6.00 |  |
| CC1(C)C[C@@](C)(c2cc(NC(=O)c3ncccc3F)ccn2)N=C(N)S1 [Compound 655] | ≥ 6.00 |  |
| C[C@]1(c2cc(NC(=O)c3ncccc3F)ccc2F)N=C(N)SCC1(F)F [Compound 660] | ≥ 6.00 |  |
| Cc1cnc(C(=O)Nc2ccc(F)c([C@@]3(C)N=C(N)SCC3(F)F)c2)cn1 [Compound 662] | ≥ 6.00 |  |
| Cc1nc(C(=O)Nc2ccc(F)c([C@@]3(C)N=C(N)SCC3(F)F)c2)co1 [Compound 664] | ≥ 6.00 |  |
| CCCCc1ccc(C(=O)Nc2ccc(F)c([C@@]3(C)N=C(N)SCC3(F)F)c2)nc1 [Compound 665] | ≥ 6.00 |  |
| COc1nc(C(=O)Nc2ccc(F)c([C@]3(C)CCSC(N)=N3)c2)co1 [Compound 667] | ≥ 6.00 |  |
| C[C@@]1(c2cc(NC(=O)c3coc(C(F)(F)F)n3)ccc2F)CCSC(N)=N1 [Compound 669] | ≥ 6.00 |  |
| Cc1cnc(C(=O)Nc2ccc(F)c([C@@]3(C)N=C(N)SCC34CC4)c2)cn1 [Compound 674] | ≥ 6.00 |  |
| COc1cnc(C(=O)Nc2ccc(F)c([C@@]3(C)N=C(N)SCC3=O)c2)cn1 [Compound 689] | ≥ 6.00 |  |
| CC1(C)C[C@@](C)(c2cccc(NC(=O)c3ccc(C#N)cn3)c2)N=C(N)S1 [Compound 696] | ≥ 6.00 |  |
| C[C@@]1(c2cc(NC(=O)c3cnc(NCC#N)cn3)ccc2F)CCSC(N)=N1 [Compound 701] |  | pIC50 (Recombinant human BACE-1, same assay, table, read-out: IC50): 6.70 |
